From ChEMBL document CHEMBL4334465, “SAR Studies on Aromatic Acylhydrazone-Based Inhibitors of Fungal Sphingolipid Synthesis as Next-Generation Antifungal Agents” (J Med Chem, 2019) come the findings set out here.

The source made the active and inactive calls. The rule behind the calls is not given here.

For series [1], the system named is Cryptococcus neoformans. The series is described as follows: Inhibition of glucosylceramide synthesis in Cryptococcus neoformans H99 in presence of [3H]palmitate. The class given is functional, organism-based. The following applies: var grubii H99.
For series [2], the system named is Cryptococcus neoformans. The series is described as follows: Antifungal activity against Cryptococcus neoformans H99 infected in CBA/J mouse assessed as increase in survival at 1.2 mg/kg, ip. The following applies: var grubii H99. The class given is functional, organism-based.
In series [3] the test system is J774. The series is described as follows: Inhibition of glucosylceramide synthesis in mouse J774 cells in presence of [3H]palmitate. Type of series: cell-based.

On to `Cc1ccccc1C(=O)N/N=C/c1cc(Br)ccc1O`, for which the inhibition entry in series [1] was “Dose-dependent effect”. Further, the outcome in series [2] was Active. For the same compound, the “inhibition (INH)” value in series [3] was “Dose-dependent effect”.
